Here are results for 6 molecules from patent publication US4066762A, “Derivatives of 7-(2-substituted-2-hydroxyiminoacetamido)-3-(1-substituted tetrazol-5-yl thiomethyl-3-cephem-4-carboxylic acid” (SmithKline Corporation, priority 1976, dated 1978).

The structures appear in SMILES notation. Converted amounts (≈) assume the structure as drawn. Structures can show the parent of a compound that is named as a salt. Where two headings read alike, the source gives them in different places.

One test concerns E. coli SK 12140. The experiment in a line: MIC in vitro, E. coli SK 12140 (G-). In kind it is cell-based. The following applies: Escherichia coli, SK12140. The text has this:
(§1) Table 1 contains minimum inhibitory concentrations in μg./ml. of a number of representative compounds compared with standard agents.

The subject of a further test is Entero. cloacae HH 31254. The test can be described thus: MIC in vitro, Entero. cloacae HH 31254 (G-). The following applies: Enterobacter cloacae, HH31254. It counts as cell-based.
Description: as §1

The test system of test [1] is Entero. aerogenes ATCC 13048. The experiment in a line: MIC in vitro, Entero. aerogenes ATCC 13048 (G-). The following applies: Klebsiella aerogenes. In kind it is cell-based.
Description: as §1

The subject of test [2] is Serratia Marcescens ATCC 13880. The experiment in a line: MIC in vitro, Serratia Marcescens ATCC 13880 (G-). It counts as cell-based.
Description: as §1

The test system of the next test is Proteus morgani 179. The experiment in a line: MIC in vitro, Proteus morgani 179 (G-). It counts as cell-based.
Description: as §1

The next test relates to Kleb. pneumoniae SK 4200. The test can be described thus: MIC in vitro, Kleb. pneumoniae SK 4200 (G-). It counts as cell-based. The following applies: Klebsiella pneumoniae, SK4200.
Description: as §1

For another test, the system named is P. Mirabils PM 444. The experiment in a line: MIC in vitro, P. Mirabils PM 444 (G-). In kind it is cell-based.
Description: as §1

In the next test the test system is Salmonella ATCC 12176. The test can be described thus: MIC in vitro, Salmonella ATCC 12176 (G-). It counts as cell-based. The following applies: for MIC: Salmonella, ATCC12176, Salmonella ATCC 12176, G-.
Description: as §1

A further test relates to E. coli HH 33779. The experiment in a line: MIC in vitro, E. coli HH 33779 (G-). It counts as cell-based. The following applies: Escherichia coli, HH33779.
Description: as §1

For the next test, the system named is S. Aureus SK 23390. The experiment in a line: MIC in vitro, S. Aureus SK 23390 (G+). In kind it is cell-based. The following applies: Staphylococcus aureus.
Description: as §1

The next test deals with S. Aureus HH 127. The experiment in a line: MIC in vitro, S. Aureus HH 127 (G+). In kind it is cell-based. The following applies: Staphylococcus aureus.
Description: as §1

The test system of another test is S. villaluz SK 70390. The experiment in a line: MIC in vitro, S. villaluz SK 70390 (G+). In kind it is cell-based. The following applies: read-out: MIC in vitro.
Description: as §1

The next test has as its system Pseudo Aeruginosa HH 63. The test can be described thus: MIC in vitro, Pseudo Aeruginosa HH 63 (G-). It counts as cell-based.
Description: as §1

Another test deals with Strep. Faecalis HH 34358. The test can be described thus: MIC in vitro, Strep. Faecalis HH 34358 (G+). The following applies: for MIC: Enterococcus faecalis. It counts as cell-based.
Description: as §1

The subject of a further test is Kleb. pneumoniae SK 1200. The experiment in a line: MIC in vitro, Kleb. pneumoniae SK 1200 (G-). It counts as cell-based. The following applies: Klebsiella pneumoniae, SK1200.
Description: as §1

For the next test, the system named is Kleb. pneumo. 4200. The test can be described thus: standard in vivo mouse protection test, Kleb. pneumo. 4200. The following applies: sc. On the procedure:
(§2) C is 7β-(syn-2-hydroxyimino-2-phenylacetamido)-3-(1-sulfomethyltetrazol-5-ylthiomethyl)-3-cephem-4-carboxylic acid disodium salt. […] 4200; 25 mg./kg. against E. coli 12140; Compound B 45 mg./kg. against Kleb. and 43, >50 against E. coli.

The next test deals with E. coli 12140. The test can be described thus: standard in vivo mouse protection test, E. coli 12140. The following applies: s.c. On the procedure: as §2
The mark [3] stands for this setting: ATCC13048, Entero. aerogenes ATCC 13048, G-, read-out: MIC in vitro.
Where [4] appears, read: ATCC13880, Serratia Marcescens ATCC 13880, G-, read-out: MIC in vitro.
[5] abbreviates: P. Mirabils PM 444, G-, read-out: MIC in vitro.
The mark [6] stands for this setting: Escherichia coli, 12140, sc, read-out: ED50.

Consider `CO/N=C(\C(=O)N[C@@H]1C(=O)N2C(C(=O)O)=C(CSc3nnnn3CS(=O)(=O)O)CS[C@H]12)c1ccco1` [A, 7β-(syn-2-methoxyimino-2-α-furylacetamido)-3-(1-sulfomethyltetrazol-5-ylthiomethyl)-3-cephem-4-carboxylic acid disodium salt hydrate], for which the minimal inhibitory concentration (MIC) in the test with E. coli SK 12140 is 0.8 µg/mL; against Entero. cloacae HH 31254, 0.8 µg/mL; in test [1] (setting [3]), 3.1 µg/mL; in test [2] (setting [4]), 3.1 µg/mL; in test [2] (Serratia marcescens, ATCC13880, read-out: MIC in vitro, Serratia Marcescens ATCC 13880, G-), 6.3 µg/mL; against Proteus morgani 179, 1.6 µg/mL. Further, the MIC against Kleb. pneumoniae SK 4200 is 0.8 µg/mL; in the test on P. Mirabils PM 444 (setting [5]) it was 1.6 µg/mL; in the test on P. Mirabils PM 444 (read-out: MIC in vitro, P. Mirabils PM 444, G-), 0.2 µg/mL; in the test with Salmonella ATCC 12176 it was 0.4 µg/mL; against E. coli HH 33779 it was 1.6 µg/mL; with S. Aureus SK 23390, 3.1 µg/mL. For the same molecule, the MIC against S. Aureus HH 127 is 3.1 µg/mL; in the test with S. villaluz SK 70390 (S. villaluz SK 70390, G+), over 200 µg/mL; against Pseudo Aeruginosa HH 63, 100 µg/mL; against Strep. Faecalis HH 34358, 100 µg/mL; against Kleb. pneumoniae SK 1200, 0.4 µg/mL. In addition, the MIC in vitro in the test on Salmonella ATCC 12176 (Salmonella ATCC 12176, G-, disodium salt hydrate) amounted to 0.8 µg/mL; in the test with Strep. Faecalis HH 34358 (disodium salt hydrate), 200 µg/mL.

Take `Cc1nnc(SCC2=C(C(=O)O)N3C(=O)[C@@H](NC(=O)Cn4cnnn4)[C@H]3SC2)s1` [Cefazolin, reference compound]: the MIC against E. coli SK 12140 was 0.8 µg/mL (≈ 1.76 µM); in the test with Entero. cloacae HH 31254 it was 0.8 µg/mL (≈ 1.76 µM); in test [1] (setting [3]), 1.6 µg/mL (≈ 3.52 µM); in test [2] (setting [4]) it was over 200 µg/mL; against Proteus morgani 179, 200 µg/mL (≈ 440 µM); against Kleb. pneumoniae SK 4200, 1.6 µg/mL (≈ 3.52 µM). Moreover, the MIC in the test with P. Mirabils PM 444 (setting [5]) was 3.1 µg/mL (≈ 6.82 µM); in the test on Salmonella ATCC 12176, 0.8 µg/mL (≈ 1.76 µM); in the test on E. coli HH 33779, 1.6 µg/mL (≈ 3.52 µM); with S. Aureus SK 23390, 0.2 µg/mL (≈ 0.44 µM); with S. Aureus HH 127 it was 0.4 µg/mL (≈ 0.88 µM); in the test with Pseudo Aeruginosa HH 63 it was over 200 µg/mL. Moreover, the MIC in the test on Strep. Faecalis HH 34358 is 6.3 µg/mL (≈ 13.9 µM); against Kleb. pneumoniae SK 1200, 0.4 µg/mL (≈ 0.88 µM).

Turning to `CO[C@@]1(NC(=O)Cc2cccs2)C(=O)N2C(C(=O)O)=C(COC(N)=O)CS[C@@H]21` [Cefoxitin, reference compound], the MIC in the test with E. coli SK 12140 is 6.3 µg/mL (≈ 14.7 µM); against Entero. cloacae HH 31254, 6.3 µg/mL (≈ 14.7 µM); in test [1] (setting [3]), 25 µg/mL (≈ 58.5 µM); in test [2] (setting [4]) it was 12.5 µg/mL (≈ 29.2 µM); against Proteus morgani 179 it was 12.5 µg/mL (≈ 29.2 µM); in the test with Kleb. pneumoniae SK 4200, 6.3 µg/mL (≈ 14.7 µM). Moreover, the MIC in the test with P. Mirabils PM 444 (setting [5]) stood at 6.3 µg/mL (≈ 14.7 µM); in the test with Salmonella ATCC 12176, 3.1 µg/mL (≈ 7.25 µM); against E. coli HH 33779, 12.5 µg/mL (≈ 29.2 µM); with S. Aureus SK 23390, 3.1 µg/mL (≈ 7.25 µM); in the test on S. Aureus HH 127, 1.6 µg/mL (≈ 3.74 µM); with S. villaluz SK 70390 (S. villaluz SK 70390, G+), 100 µg/mL (≈ 234 µM). Also, the MIC is over 200 µg/mL against Pseudo Aeruginosa HH 63, 200 µg/mL (≈ 468 µM) with Strep. Faecalis HH 34358 and 3.1 µg/mL (≈ 7.25 µM) with Kleb. pneumoniae SK 1200.

Consider `CO/N=C(\C(=O)N[C@@H]1C(=O)N2C(C(=O)O)=C(COC(N)=O)CS[C@H]12)c1ccco1` [Cefuroxime, reference compound], for which the minimal inhibitory concentration (MIC) in the test with E. coli SK 12140 is 6.3 µg/mL (≈ 14.8 µM); in the test with Entero. cloacae HH 31254 it was 3.1 µg/mL (≈ 7.3 µM); in [1] (setting [3]), 6.3 µg/mL (≈ 14.8 µM); in [2] (setting [4]), 12.5 µg/mL (≈ 29.5 µM); with Proteus morgani 179, 50 µg/mL (≈ 118 µM); with Kleb. pneumoniae SK 4200, 6.3 µg/mL (≈ 14.8 µM). Further, the MIC with P. Mirabils PM 444 (setting [5]) was 1.6 µg/mL (≈ 3.77 µM); against Salmonella ATCC 12176 it was 3.1 µg/mL (≈ 7.3 µM); against E. coli HH 33779, 6.3 µg/mL (≈ 14.8 µM); with S. Aureus SK 23390, 1.6 µg/mL (≈ 3.77 µM); in the test with S. Aureus HH 127 it was 0.8 µg/mL (≈ 1.89 µM); in the test on S. villaluz SK 70390 (S. villaluz SK 70390, G+), over 200 µg/mL. Also, the results for the MIC against Pseudo Aeruginosa HH 63, against Strep. Faecalis HH 34358 and with Kleb. pneumoniae SK 1200 were over 200 µg/mL, 12.5 µg/mL (≈ 29.5 µM) and 3.1 µg/mL (≈ 7.3 µM), respectively.

As to `CO/N=C(\C(=O)N[C@@H]1C(=O)N2C(C(=O)O)=C(CSc3nnnn3CS(=O)(=O)O)CS[C@H]12)c1ccccc1` [Compound B, 7β-(syn-2-methoxyimino-2-phenylacetamido)-3-(1-sulfomethyltetrazol-5-ylthiomethyl)-3-cephem-4-carboxylic acid disodium salt], the MIC was 6.3 µg/mL against E. coli SK 12140; 3.1 µg/mL in the test with Entero. cloacae HH 31254; 12.5 µg/mL in test [1] (ATCC13048, read-out: MIC in vitro); 12.5 µg/mL in test [2] (setting [4]); 6.3 µg/mL against Proteus morgani 179; 3.1 µg/mL against Kleb. pneumoniae SK 4200. The MIC in the test on Salmonella ATCC 12176 was 1.6 µg/mL; with E. coli HH 33779, 6.3 µg/mL; with S. Aureus SK 23390, 1.6 µg/mL; in the test with S. Aureus HH 127, 1.6 µg/mL; in the test with S. villaluz SK 70390, over 200 µg/mL; with Pseudo Aeruginosa HH 63, 200 µg/mL. Moreover, the values for the MIC in the test on Strep. Faecalis HH 34358 and in the test with Kleb. pneumoniae SK 1200 were 25 µg/mL and 3.1 µg/mL, respectively. The ED50 is 45 mg/kg with Kleb. pneumo. 4200, 43 mg/kg in the test with E. coli 12140 (setting [6]) and over 50 mg/kg in the test on E. coli 12140 (disodium salt).

In the case of `O=C(O)C1=C(CSc2nnnn2CS(=O)(=O)O)CS[C@@H]2[C@H](NC(=O)/C(=N\O)c3ccccc3)C(=O)N12` [Compound C, 7β-(syn-2-hydroxyimino-2-phenylacetamido)-3-(1-sulfomethyltetrazol-5-ylthiomethyl)-3-cephem-4-carboxylic acid disodium salt], the MIC against E. coli SK 12140 was 1.6 µg/mL; in the test on Entero. cloacae HH 31254, 1.6 µg/mL; in test [1] (setting [3]), 6.3 µg/mL; in test [2] (setting [4]) it was 12.5 µg/mL; with Proteus morgani 179, 25 µg/mL; with Kleb. pneumoniae SK 4200, 1.6 µg/mL. The MIC was 0.8 µg/mL in the test on Salmonella ATCC 12176; 3.1 µg/mL with E. coli HH 33779; 0.8 µg/mL in the test with S. Aureus SK 23390; 0.8 µg/mL in the test on S. Aureus HH 127; 100 µg/mL with S. villaluz SK 70390 (S. villaluz SK 70390, G+); over 200 µg/mL with Pseudo Aeruginosa HH 63. The MIC in the test on Strep. Faecalis HH 34358 turned out to be 6.3 µg/mL; in the test with Kleb. pneumoniae SK 1200 it was 0.8 µg/mL. The ED50 was found to be 4.4 mg/kg in the test with Kleb. pneumo. 4200 and 25 mg/kg with E. coli 12140 (setting [6]).
